Data from patent US20250188150A1, “PEPTIDES FOR THE TREATMENT OF FIBROSIS” (Technion Research & Development Foundation Limited, priority 2022, published 2025).

What was measured:
[1] = target: T1, LOXL3 (Homo sapiens, UniProt P58215); assay: Oxidation assay of peptides by LOXL3; assay type: biochemical; settings: for oxidation of the peptide by LOXL3: oxidation assay
T1 sequence (P58215 26-753): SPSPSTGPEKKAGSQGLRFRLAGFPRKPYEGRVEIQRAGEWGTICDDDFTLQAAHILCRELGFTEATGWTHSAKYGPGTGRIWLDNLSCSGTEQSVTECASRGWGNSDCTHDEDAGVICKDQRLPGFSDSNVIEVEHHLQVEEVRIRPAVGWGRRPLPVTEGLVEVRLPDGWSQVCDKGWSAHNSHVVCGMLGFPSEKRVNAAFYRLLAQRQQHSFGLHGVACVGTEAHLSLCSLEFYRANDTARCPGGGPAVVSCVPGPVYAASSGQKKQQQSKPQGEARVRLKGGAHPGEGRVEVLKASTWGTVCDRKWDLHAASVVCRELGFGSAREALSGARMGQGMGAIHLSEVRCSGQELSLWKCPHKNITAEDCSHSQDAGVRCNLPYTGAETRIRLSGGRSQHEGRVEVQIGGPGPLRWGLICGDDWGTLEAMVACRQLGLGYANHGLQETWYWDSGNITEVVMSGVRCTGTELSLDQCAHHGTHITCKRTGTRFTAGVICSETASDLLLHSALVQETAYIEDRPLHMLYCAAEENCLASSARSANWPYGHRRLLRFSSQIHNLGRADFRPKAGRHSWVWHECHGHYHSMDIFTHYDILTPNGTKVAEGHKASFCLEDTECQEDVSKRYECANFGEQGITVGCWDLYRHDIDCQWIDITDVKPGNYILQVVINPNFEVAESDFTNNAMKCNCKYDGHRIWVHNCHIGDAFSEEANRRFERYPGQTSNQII

[2] = target: T1, LOXL3; assay: Spreading and adhesion of Pax-GFP cells on LOXL3-treated FN with or without βAPN; assay type: cell-based; set-up: purchased R&D systems 6069-AO
Procedure: Spreading and soft gel experiments: Ibidi 8-wellplates (Ibidi, 190814/1) were coated with human plasma FN (hFN, Sigma-Aldrich, FC010-10MG, 10 μg/ml) for 1 hour at 37° C. Afterwards, the samples were treated with human recombinant LOXL3 (RhLOXL3, R&D systems, 6069-AO) or LOXL2 (RhLOXL2, R&D systems, 2639-AO) for 5 hours (or sodium borate buffer 50 mM as control), with or without 200 mM βAPN (Sigma, A3134-25G) and then washed. Then, cells were seeded on the FN matrix and fixed at varying time points after spreading, followed by immunostaining. For soft gel experiments, Ibidi 8-well plates were covered with silicone gels (DOWSIL, CY 52-276 A&B), prepared at different rigidities that were previously calibrated and described (42) previous to FN coating. Images were acquired using an LSM800 confocal microscope (Zeiss) with Airyscan function and 20× or 63× objectives. […]
Nascent adhesion formation, even on very stiff matrices, requires at least four RGD (Arg-Gly-Asp) ligands that are localized within ˜60 nm from each other (35, 36). […] Towards that end, following enzymatic treatment, FN was coated on glass coverslips and Pax-GFP cells were added and shortly after (15 or 30 minutes) fixed and analyzed.

[3] = test system: lung fibroblasts; assay: Lung fibroblast proliferation (culture confluency) with peptides; assay type: cell-based; settings: following 72 hours in culture
Description: Note the lack of effect in the first day of culturing (G).

[4] = test system: human dermal fibroblast (HDF) cells; assay: Fibronectin fibrillogenesis (FN immunostaining) under HDF cells exposed to peptides; assay type: cell-based; settings: HDF on glass without external FN coating, fixed after 1 week; compared with control peptides (FN1-3, FN1-9) or untreated sample
Procedure: (§1) Adhesion, cell area andfibronectin analysis: All of the adhesion and fibronectin fibrils analyses shown in this paper were performed using the trainable Weka segmentation plugin (41) of ImageJ (NIH) software.
Immunofluorescence: Cells were fixed with 4% paraformaldehyde solution (36% stock, Sigma-Aldrich, 50-00-0, diluted with PBS) and permeabilized with 0.1% Triton X-100 in PBS (PBT 0.1%). Primary antibodies were incubated with the fixed cells over night at 4° C. After, secondary antibodies and phalloidin were incubated for 1 hour at room temperature. For dSTORM imaging, a second 10 minutes fixation was performed at the end of the immunostaining protocol.
Representative images (FIGS. 8A-E) of fibronectin immunostaining (color-coded for intensity) underneath human dermal fibroblast (HDF) cells exposed to the different peptides (8B—SEQ ID NO: 21, 8C—SEQ ID NO: 22; 8D—SEQ ID NO: 19; 8E—SEQ ID NO: 20), seeded on glass without external FN coating and fixed after 1 week (A-E, scale=20 μm) illustrate that inhibitor peptides block fibronectin fibrillogenesis.

[5] = test system: HDF cells; assay: HDF cell area after exposure to peptides; assay type: cell-based, human; settings: HDF on glass without external FN coating, fixed after 1 week; compared with control peptides or untreated sample
Procedure: as §1
Representative images (FIGS. 9A-E) of HDF cell contour following exposure to the different peptides (9B—SEQ ID NO: 21, 9C—SEQ ID NO: 22; 9D—SEQ ID NO: 19; 9E—SEQ ID NO: 20), seeded on glass without external FN coating and fixed after 1 week (A-E, scale=100 μm) illustrate that inhibitor peptides reduce cell size.

Row | Compound | effect on LOXL3 oxidation of inhibitor peptides ([1]; addition of βAPN to the oxidation assay) | cell spreading on LOXL3-treated FN ([2]; βAPN added following the FN treatment, compared to treated FN without the inhibitor) | increases in adhesion sizes and cell areas on LOXL3-treated FN ([2]; βAPN added to the FN-LOXL3 mix throughout the reaction, glass, 15 minutes) | culture confluency (cell proliferation) [3] | oxidation of the peptide by LOXL3 [1] | total fibronectin fibrils [4] | cell area [5]
1 | N#CCCN [βAPN, beta-aminopropionitrile] | oxidation is inhibited | no difference was observed in cell spreading | blocked | – | – | – | –
2 | DQCQDSETGTFYQIGDSWEKYVHGVRYQCYCYGRGIGEWHCQPL (FN1-9 (control peptide)) | – | – | – | not with the control peptide (FN1-9) inhibit cell proliferation | not the control peptides (FN1-3 and FN1-9) undergo oxidation by LOXL3 | – | –
3 | ETCFDKYTGNTYRVGDTYERPKDSMIWDCTCIGAGRGRISCTIA (FN1-2 (Inhibitor peptide) long version of FN1-2) | – | – | – | inhibit cell proliferation | undergo oxidation by LOXL3 | reduction in fibrils | significant reduction
